Results: US8470810B2, “Heterocyclic compounds suitable for treating disorders that respond to modulation of the dopamine D3 receptor” (Abbott GmbH & Co. KG, priority 2004, dated 2013)
Blank lines part the entries; values can stand above or below the compound they belong to.

Columns and labels:
[1] = target: T1, human dopamine D2L receptors (long isoform) (Homo sapiens, UniProt P14416); assay: Dopamine D2L receptor binding, displacement of [125I] iodospiperone; conditions: membranes of HEK-293 cells stably expressing human D2L; 0.01 nM [125I] iodospiperone; 25° C., 60 minutes; read-out: Ki(D2)*
T1 construct: expressed in transfected cells
T1 sequence (P14416 whole entry, canonical isoform): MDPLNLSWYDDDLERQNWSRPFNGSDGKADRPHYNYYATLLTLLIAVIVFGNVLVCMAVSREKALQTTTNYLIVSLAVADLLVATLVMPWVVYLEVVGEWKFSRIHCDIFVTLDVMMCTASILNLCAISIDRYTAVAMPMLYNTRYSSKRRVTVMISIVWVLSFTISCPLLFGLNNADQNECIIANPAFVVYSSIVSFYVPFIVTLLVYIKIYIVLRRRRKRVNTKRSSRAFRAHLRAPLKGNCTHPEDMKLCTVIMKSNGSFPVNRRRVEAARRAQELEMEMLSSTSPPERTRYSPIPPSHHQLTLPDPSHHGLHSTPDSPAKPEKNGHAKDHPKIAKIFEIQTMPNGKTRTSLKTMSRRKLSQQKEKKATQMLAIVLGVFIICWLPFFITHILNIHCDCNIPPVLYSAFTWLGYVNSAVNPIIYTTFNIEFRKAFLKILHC
Method: (§1) The substance to be tested was either dissolved in methanol/Chremophor® (BASFAG) or in dimethyl sulfoxide and then diluted with water to the desired concentration.
(§2) Each assay mixture was run in triplicate.
The incubation buffer contained 50 mM tris, 120 mM NaCl, 5 mM KCl, 2 mM CaCl2, 2 mM MgCl2 and 0.1% bovine serum albumin. The buffer was adjusted to pH 7.4 with HCl.
(§3) After having been incubated at 25° C. for 60 minutes, the assay mixtures were filtered through a Whatman GF/B glass fiber filter under vacuum using a cell collecting device. The filters were transferred to scintillation viols using a filter transfer system. After 4 ml of Ultima Gold® (Packard) have been added, the samples were shaken for one hour and the radioactivity was then counted in a Beta-Counter (Packard, Tricarb 2000 or 2200CA). The cpm values were converted into dpm using a standard quench series and the program belonging to the instrument.
(§4) The inhibition curves were analyzed by means of iterative nonlinear regression analysis using the Statistical Analysis System (SAS) which is similar to the “LIGAND” program described by Munson and Rodbard.
(§5) The results of the receptro binding studies are expressed as receptor binding constants Ki(D2) and Ki(D3), respectively, as herein before described, and given in table 6.

[2] = target: T2, human dopamine D3 receptors (Homo sapiens, UniProt P35462); assay: Dopamine D3 receptor binding, displacement of [125I]-iodosulpride; conditions: for Ki: membranes of HEK-293 cells stably expressing human D3, 0.1 nM [125I]-iodosulpride, 25° C., 60 minutes; for Ki(D2)*/Ki(D3)*: selectivity ratio of the receptor binding constants D2 over D3
T2 construct: expressed in transfected cells
T2 sequence (P35462 whole entry): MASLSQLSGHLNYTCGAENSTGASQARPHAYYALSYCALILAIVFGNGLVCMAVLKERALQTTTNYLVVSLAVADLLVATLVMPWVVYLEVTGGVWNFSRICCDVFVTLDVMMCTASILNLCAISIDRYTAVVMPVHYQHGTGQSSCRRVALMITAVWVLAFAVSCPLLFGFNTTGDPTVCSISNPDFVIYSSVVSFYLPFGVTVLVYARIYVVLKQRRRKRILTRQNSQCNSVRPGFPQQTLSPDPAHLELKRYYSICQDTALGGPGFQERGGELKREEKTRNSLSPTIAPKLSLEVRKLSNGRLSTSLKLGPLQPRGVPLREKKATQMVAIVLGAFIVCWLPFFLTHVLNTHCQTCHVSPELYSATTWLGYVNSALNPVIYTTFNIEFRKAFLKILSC
Method: as §1, §2
The incubation buffer contained 50 mM tris, 120 mM NaCl, 5 mM KCl, 2 mM CaCl2, 2 mM MgCl2 and 0.1% bovine serum albumin, 10 μM quinolone and 0.1% ascorbic acid (prepared fresh daily). The buffer was adjusted to pH 7.4 with HCl.
as §3, §4, §5

SMILES: CCCN1CC[C@@H](c2ccc(NS(=O)(=O)c3ccc(-c4cnco4)cc3)cc2)C1 [Example 70, 4-Oxazol-5-yl-N-[4-((S)-1-propyl-pyrrolidin-3-yl)-phenyl]-benzenesulfonamide]
- Ki [1]: 37.3 nM
- Ki [2]: 0.84 nM
- Ki(D2)*/Ki(D3)* [2]: 44

SMILES: C=CCN1CC[C@@H](c2ccc(NS(=O)(=O)c3ccc(OC(F)(F)F)cc3)cc2)C1 [Example 101, N-[4-((S)-1-Allyl-pyrrolidin-3-yl)-phenyl]-4-trifluoromethoxy-benzenesulfonamide]
- Ki [1]: 268 nM
- Ki [2]: 3.7 nM
- Ki(D2)*/Ki(D3)* [2]: 73

SMILES: C=CCN1CC[C@H](c2ccc(NS(=O)(=O)c3ccc(C(C)C)cc3)cc2)C1.Cl [Example 4, 4-(Isopropyl)-N-[4-((R)-1-allyl-pyrrolidin-3-yl)-phenyl]-benzenesulfonamide hydrochloride]
- Ki [1]: 403 nM
- Ki [2]: 3.16 nM
- Ki(D2)*/Ki(D3)* [2]: 127

SMILES: CCCN1CC[C@@H](c2ccc(NS(=O)(=O)c3ccc(OC)cc3)cc2)C1 [Example 12, 4-Methoxy-N-[4-((S)-1-propyl-pyrrolidin-3-yl)-phenyl]-benzenesulfonamide]
- Ki [1]: 131 nM
- Ki [2]: 3 nM
- Ki(D2)*/Ki(D3)* [2]: 43

SMILES: C=C(C)c1ccc(S(=O)(=O)Nc2ccc([C@@H]3CCN(CCC)C3)cc2)cc1F [Example 20, 3-Fluoro-4-isopropenyl-N-[4-((S)-1-propyl-pyrrolidin-3-yl)-phenyl]-benzenesulfonamide]
- Ki [1]: 7.3 nM
- Ki [2]: 0.3 nM
- Ki(D2)*/Ki(D3)* [2]: 24

SMILES: CCCN1CC[C@@H](c2ccc(NS(=O)(=O)c3ccc(N4CCOCC4)cc3)cc2)C1.Cl [Example 120, 4-Morpholin-4-yl-N-[4-((S)-1-propyl-pyrrolidin-3-yl)-phenyl]-benzenesulfonamide hydrochloride]
- Ki [1]: 174 nM
- Ki [2]: 2 nM
- Ki(D2)*/Ki(D3)* [2]: 86

SMILES: O=S(=O)(Nc1ccc([C@@H]2CCNC2)cc1)c1ccc(CCCF)cc1 [Example 108, 4-(3-Fluoro-propyl)-N—((S)-4-pyrrolidin-3-yl-phenyl)-benzenesulfonamide]
- Ki [1]: 204 nM
- Ki [2]: 11.2 nM
- Ki(D2)*/Ki(D3)* [2]: 18

SMILES: CCCN1CC[C@@H](c2ccc(NS(=O)(=O)c3ccc(C(F)(F)F)cc3)cc2)C1.Cl [Example 8, 4-Trifluoromethyl-N-[4-((S)-1-propyl-pyrrolidin-3-yl)-phenyl]-benzenesulfonamide hydrochloride]
- Ki [1]: 235 nM
- Ki [2]: 4.1 nM
- Ki(D2)*/Ki(D3)* [2]: 57

SMILES: CCCN1CC[C@@H](c2ccc(NS(=O)(=O)c3ccc(C(C)C)cc3)cc2)C1.Cl [Example 1, 4-Isopropyl-N-[4-((S)-1-propyl-pyrrolidin-3-yl)-phenyl]-benzenesulfonamide hydrochloride]
- Ki [1]: 7.6 nM
- Ki [2]: 0.09 nM
- Ki(D2)*/Ki(D3)* [2]: 89

SMILES: CCCN1CCC(c2ccc(NS(=O)(=O)c3ccc(C(C)C)cc3)cc2F)C1.Cl (centres unmarked) [Example 130, N-[3-Fluoro-4-(1-propyl-pyrrolidin-3-yl)-phenyl]-4-isopropyl-benzenesulfonamide, hydrochloride]
- Ki [1]: 8.5 nM
- Ki [2]: 0.52 nM
- Ki(D2)*/Ki(D3)* [2]: 16

SMILES: CCCN1CC[C@@H](c2ccc(NS(=O)(=O)c3ccc(-c4ccon4)s3)cc2)C1 [Example 81, 5-Isoxazol-3-yl-thiophene-2-sulfonic acid [4-((S)-1-propyl-pyrrolidin-3-yl)-phenyl]-amide]
- Ki [1]: 1160 nM
- Ki [2]: 31.3 nM
- Ki(D2)*/Ki(D3)* [2]: 37

SMILES: CCCN1CC(c2ccc(NS(=O)(=O)c3ccc(Br)cc3)cc2)C1 [Example 58, 4-Bromo-N-[4-(1-propyl-azetidin-3-yl)-phenyl]-benzenesulfonamide]
- Ki [1]: 2940 nM
- Ki [2]: 39.8 nM

SMILES: O=S(=O)(Nc1ccc([C@@H]2CCNC2)cc1)c1ccc(OC(F)(F)F)cc1 [Example 102, N—((S)-4-Pyrrolidin-3-yl-phenyl)-4-trifluoromethoxy-benzenesulfonamide]
- Ki [1]: 2710 nM
- Ki [2]: 52 nM
- Ki(D2)*/Ki(D3)* [2]: 52

Continued by falling Ki [1], values first:

- Ki [1]: 1810 nM
- Ki [2]: 46 nM
- Ki(D2)*/Ki(D3)* [2]: 39
SMILES: CCCN1CC(c2ccc(NS(=O)(=O)c3ccc(OC(F)(F)F)cc3)cc2)C1 [Example 49, N-[4-(1-Propyl-azetidin-3-yl)-phenyl]-4-trifluoromethoxybenzene sulfonamide]

- Ki [1]: 1340 nM
- Ki [2]: 43.9 nM
- Ki(D2)*/Ki(D3)* [2]: 31
SMILES: CCCN1CC[C@@H](c2ccc(NS(=O)(=O)c3ccc(O)cc3)cc2)C1 [Example 122, 4-Hydroxy-N-[4-((S)-1-propyl-pyrrolidin-3-yl)-phenyl]-benzenesulfonamide]

- Ki [1]: 1170 nM
- Ki [2]: 36.6 nM
- Ki(D2)*/Ki(D3)* [2]: 32
SMILES: CCCN1CC[C@@H](c2ccc(NS(=O)(=O)c3ccc(-c4cnn(C)c4)cc3)cc2)C1 [Example 118, 4-(1-Methyl-1H-pyrazol-4-yl)-N-[4-((S)-1-propyl-pyrrolidin-3-yl)-phenyl]-benzenesulfonamide]

- Ki [1]: 168 nM
- Ki [2]: 3.1 nM
- Ki(D2)*/Ki(D3)* [2]: 54
SMILES: CCCN1CC[C@@H](c2ccc(NS(=O)(=O)c3ccc(Cl)cc3)cc2)C1 [Example 13, 4-Chloro-N-[4-((S)-1-propyl-pyrrolidin-3-yl)-phenyl]-benzenesulfonamide]

- Ki [1]: 137 nM
- Ki [2]: 2.1 nM
- Ki(D2)*/Ki(D3)* [2]: 65
SMILES: CCCN1CC(c2ccc(NS(=O)(=O)c3ccc(C(C)C)cc3)cc2)C1 [Example 48, 4-Isopropyl-N-[4-(1-propyl-azetidin-3-yl)-phenyl]-benzene sulfonamide]

- Ki [1]: 126 nM
- Ki [2]: 3.1 nM
- Ki(D2)*/Ki(D3)* [2]: 41
SMILES: CCCN1CC[C@@H](c2ccc(NS(=O)(=O)c3ccc(Br)cc3F)cc2)C1 [Example 17, 4-Bromo-2-fluoro-N-[4-((S)-1-propyl-pyrrolidin-3-yl)-phenyl]-benzenesulfonamide]

- Ki [1]: 72 nM
- Ki [2]: 1.2 nM
- Ki(D2)*/Ki(D3)* [2]: 60
SMILES: CCCN1CC[C@@H](c2ccc(NS(=O)(=O)c3ccc4c(c3)CCC4)cc2)C1.Cl [Example 24, Indan-5-sulfonic acid [4-((S)-1-propyl-pyrrolidin-3-yl)-phenyl]-amide hydrochloride]

- Ki [1]: 41 nM
- Ki [2]: 0.92 nM
- Ki(D2)*/Ki(D3)* [2]: 45
SMILES: CCCN1CC[C@@H](c2ccc(NS(=O)(=O)c3ccc(CCC(F)(F)F)cc3)cc2)C1 [Example 88, N-[4-((S)-1-Propyl-pyrrolidin-3-yl)-phenyl]-4-(3,3,3-trifluoro-Propyl)-benzenesulfonamide]

- Ki [1]: 27.3 nM
- Ki [2]: 0.67 nM
- Ki(D2)*/Ki(D3)* [2]: 41
SMILES: C=C(C)c1ccc(S(=O)(=O)Nc2ccc([C@@H]3CCN(CCC)C3)cc2)s1 [Example 29, 5-Isopropenyl-thiophene-2-sulfonic acid [4-((S)-1-propyl-pyrrolidin-3-yl)-phenyl]-amide]

- Ki [1]: 20.1 nM
- Ki [2]: 0.45 nM
- Ki(D2)*/Ki(D3)* [2]: 45
SMILES: CCCN1CC[C@@H](c2ccc(NS(=O)(=O)c3ccc(CC)cc3)cc2)C1.Cl [Example 6, 4-Ethyl-N-[4-((S)-1-propyl-pyrrolidin-3-yl)-phenyl]-benzenesulfonamide hydrochloride]

- Ki [1]: 17.3 nM
- Ki [2]: 0.61 nM
- Ki(D2)*/Ki(D3)* [2]: 28
SMILES: CCCN1CC[C@@H](c2ccc(NS(=O)(=O)c3ccc(CCCF)cc3)cc2)C1 [Example 92, 4-(3-Fluoro-propyl)-N-[4-((S)-1-propyl-pyrrolidin-3-yl)-phenyl]-benzenesulfonamide]
